Test results from BindingDB's records for patent US9745282 (Merck Sharp & Dohme Corp, 2017).

Biological target: T1, Cytochrome P450 11B1, mitochondrial (Homo sapiens, UniProt P15538)
T1 sequence (P15538 whole entry): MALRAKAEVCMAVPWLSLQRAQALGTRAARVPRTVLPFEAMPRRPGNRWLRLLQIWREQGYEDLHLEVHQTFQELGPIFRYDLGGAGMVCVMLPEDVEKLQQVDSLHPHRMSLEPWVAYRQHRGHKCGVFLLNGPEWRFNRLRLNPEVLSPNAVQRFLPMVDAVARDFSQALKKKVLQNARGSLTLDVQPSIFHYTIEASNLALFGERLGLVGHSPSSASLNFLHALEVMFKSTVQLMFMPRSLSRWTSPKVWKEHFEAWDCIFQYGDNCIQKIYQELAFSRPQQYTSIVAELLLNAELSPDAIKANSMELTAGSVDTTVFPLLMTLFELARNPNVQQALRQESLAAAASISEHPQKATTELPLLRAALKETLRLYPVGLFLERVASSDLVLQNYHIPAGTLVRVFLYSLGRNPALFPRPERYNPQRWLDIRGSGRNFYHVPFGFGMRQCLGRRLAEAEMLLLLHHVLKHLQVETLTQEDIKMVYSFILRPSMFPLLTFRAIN

Structure (SMILES) | IC50
CC(=O)N1CCc2cc(-c3cncc(F)c3C)cc(Cl)c21 [US9745282, 8] | 270 nM
CC(=O)N1CCc2cc(-c3cnccc3C)cc(F)c21 [US9745282, 15] | 68 nM
CC(C)C(=O)N1CCc2cc(-c3cncc4ccccc34)ccc21 [US9745282, 30] | 3720 nM
O=C(N1CCc2cc(-c3cncc(F)c3)cc(Cl)c21)C(F)(F)F [US9745282, 32] | 525 nM
O=C(N1CCc2cc(-c3cncc(F)c3)cc(F)c21)C(F)(F)F [US9745282, 33] | 1410 nM
